Consider 2 compounds from patent US20230113817A1, “DILEUCINE COMPOSITIONS AND METHODS OF USE THEREOF FOR FAT LOSS” (Ingenious Ingredients, LP, priority 2021, published 2023).

Test [1] concerns body fat of overweight subjects. The experiment in a line: Resistance exercise training study, body composition and body fat. The format is in vivo, human. As to conditions: 2 g per day, n=7 per treatment group, beginning vs conclusion of study (FIG. 2). From the text: A randomized, double-blind, cross over design, resistance exercise training study was preformed to assess the impact of administration of the instantly disclosed compositions on subject body composition and body fat. Subjects were “overweight”, BMI of 26.8 in the leucine group, 25.0 in the dileucine group. Treatment groups received either leucine (2 g per day), dileucine (2 g per day), or placebo (n=7, per treatment group). Body measurements were taken at the beginning and conclusion of the study.

For test [2], the system named is body weight of male Swiss albino mice. Kind of test: Weight management study in treadmill-trained mice. As to conditions: daily treatment for 28 days. The format is in vivo. On the procedure: Animal studies were conducted to investigate the effects of test substances (treatment) on weight management in male Swiss albino mice. Animals were divided into 17 groups with each group consisting of 8 animals. The test groups were treated with the test substances daily for 28 days. All the animals were subjected to treadmill training for 5 days a week for 28 days. Measurements were taken on day 0 and 28th day.

With `CC(C)C[C@H](NC(=O)[C@@H](N)CC(C)C)C(=O)O` [Dileucine, L-Leucyl-L-leucine], the “body fat following resistance training” value in test [1] is recorded as “decreased body fat”. This compound showed a Weight in grams in test [2] (treadmill training 5 days a week, dileucine 411 mg/kg, partner doses per Table 1) of 33.23 grams. The “Percent Difference from Placebo” value in test [2] (weight vs control group, treadmill training, doses per Table 1) is −2.69%.
Turning to `CC(C)C[C@H](N)C(=O)O` [leucine], in test [1], the “body fat following resistance training” value is reported as “modest increases in body fat”.
